US8497276B2, “Substituted indolo-piperidine compounds” (ArQule, Inc., priority 2009, dated 2013)

Columns and labels:
Tec kinase = target: T1, Tec kinase (Homo sapiens, UniProt P42680); test: Tec Kinase Activity Assay; assay type: biochemical; settings: 75 μM ATP, Pyk-2 substrate; compound concentration not given
T1 sequence (P42680 1-631): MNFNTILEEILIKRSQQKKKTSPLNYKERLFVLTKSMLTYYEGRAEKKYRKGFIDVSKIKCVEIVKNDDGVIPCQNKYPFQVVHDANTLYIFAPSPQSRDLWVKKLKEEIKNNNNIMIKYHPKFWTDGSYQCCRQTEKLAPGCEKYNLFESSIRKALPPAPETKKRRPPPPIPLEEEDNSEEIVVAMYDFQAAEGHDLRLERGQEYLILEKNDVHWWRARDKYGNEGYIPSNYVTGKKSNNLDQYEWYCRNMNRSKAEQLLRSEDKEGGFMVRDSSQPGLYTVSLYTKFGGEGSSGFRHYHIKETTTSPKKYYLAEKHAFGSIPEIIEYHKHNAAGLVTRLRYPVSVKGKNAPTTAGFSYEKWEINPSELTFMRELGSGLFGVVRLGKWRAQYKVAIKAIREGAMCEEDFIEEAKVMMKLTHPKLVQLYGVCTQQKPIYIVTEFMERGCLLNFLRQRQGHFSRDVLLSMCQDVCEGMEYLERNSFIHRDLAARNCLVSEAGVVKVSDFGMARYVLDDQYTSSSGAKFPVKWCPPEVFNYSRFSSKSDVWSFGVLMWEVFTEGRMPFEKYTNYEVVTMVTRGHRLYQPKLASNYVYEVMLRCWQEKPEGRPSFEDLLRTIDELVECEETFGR
Protocol: The disclosed compounds were assayed for their ability to inhibit the activity of Tec kinase. Nunc Maxisorb plates were coated with streptavidin by overnight incubation with 100 μl per well of 1 μg/ml Streptavidin in DPBS. Prior to the start of the experiment, the plates were washed with TBST (3×200 μl) and blocked for at least 1 hour by adding 150 μl of 5% BSA/TBST. The plates were then washed with TBST (3×200 μl/well) and left dry immediately before the capture step.
The disclosed test compounds and controls (Staurosporine and Sutent) were prepared using the following assay buffer (50 mM Tris-HCl, 0.02 mg/ml BSA, 10 mM MgCl2, 0.1 mM Na3VO4, 1 mM EGTA, 75 μM ATP, 0.01% NP-40, 2 mM DTT in 10% glycerol/water) at 3× desired final concentration. 20 μl of the test compounds (or control) and 20 μl TEC (0.25 ng/μl) were rapidly added to a reaction plate. The plate was incubated for 30 minutes. 20 μl of Pyk-2 (0.5 ng/μl) was then added to the reaction plate. The plate was incubated at room temperature for two hours.
50 μl was transferred from the reaction plate to the streptavidin coated plate. The capture plate was incubated at room temperature for 30 minutes then washed with TBST 6 times. 100 μl/well of Cell Signaling anti-phospho tyrosine was added to the capture plate at a dilution of 1:3000 in 2% BSA/TBST. The plate was incubated for one hour at room temperature then washed with TBST 6 times. 100 μl/well of alkaline phosphatase tagged goat anti-mouse antibody was added to the capture plate at a dilution of 1:4000 in 2% BSA/TBST. The plate was incubated for one hour at room temperature then washed with TBST 6 times.
The fluorescent readout was initiated by the addition of 100 μl/well of Attophos reagent (6 mg/10 ml) and the reading was done on the Perkin Elmer Envision system.

DLD-1 = test: MTS Assay (cell growth inhibition), DLD-1; assay type: cell-based; settings: DLD-1 cells, 72 hours with test compound; concentration not given
Protocol: (§1) Cells were maintained at 37° C., 5% CO2 in DMEM media supplemented with 1% fetal bovine serum, penicillin/streptomycin and fungizone (Invitrogen). Cells were seeded into 96-well tissue culture plates at 3000 per well and cultured at 37° C. for 18 hours. Test compounds were dissolved and diluted to 300× in DMSO then diluted 1:40 in DMEM. Cells were incubated with test compounds for 72 hours followed by incubation with tetrazolium compound (3-(4,5-dimethylthiazol-2-yl)-5-(3-carboxymethoxyphenyl)-2-(4-sulfophenyl)-2H-tetrazolium, inner salt; MTS) and the electron coupling reagent, phenazine methosulfate (PMS) for 4 hours. […] The ability of compounds to inhibit cell growth in this assay is correlated with the reduction of dehydrogenase enzyme activity found in metabolically active cells. The measurement of the absorbance of the formazan was assessed using an ENVISION™ (Perkin Elmer) microplate reader at 492 nm. The calculated IC50 value is the concentration of the test compound that causes a 50% decrease in the absorbance.

Kato III = test: MTS Assay (cell growth inhibition), Kato III; assay type: cell-based; settings: Kato III cells, 72 hours with test compound; concentration not given
Protocol: as §1

MDA-MB 231 = test: MTS Assay (cell growth inhibition), MDA-MB 231; assay type: cell-based; settings: MDA-MB 231 cells, 72 hours with test compound; concentration not given
Protocol: as §1

NCI-H1299 = test: MTS Assay (cell growth inhibition), NCI-H1299; assay type: cell-based; settings: NCI-H1299 cells, 72 hours with test compound; concentration not given
Protocol: as §1

PACA-2 = test: MTS Assay (cell growth inhibition), PACA-2; assay type: cell-based; settings: PACA-2 cells, 72 hours with test compound; concentration not given
Protocol: as §1

PC-3 = test: MTS Assay (cell growth inhibition), PC-3; assay type: cell-based; settings: PC-3 cells, 72 hours with test compound; concentration not given
Protocol: as §1

Compound	Biochemical IC50 (% inhibition) Tec (Tec kinase)	MTS cell kill data (% inhibition) DLD-1 (DLD-1)	MTS cell kill data (% inhibition) Kato III (Kato III)	MTS cell kill data (% inhibition) MDA-MB 231 (MDA-MB 231)	MTS cell kill data (% inhibition) NCI-H1299 (NCI-H1299)	MTS cell kill data (% inhibition) PACA-2 (PACA-2)	MTS cell kill data (% inhibition) PC-3 (PC-3)
Cc1cccc(C2c3[nH]c4ccccc4c3CCN2c2ncnc3[nH]ccc23)c1 (stereo not drawn) [Compound 10, 1-(3-methylphenyl)-2-(7H-pyrrolo[2,3-d]pyrimidin-4-yl)-2,3,4,9-tetrahydro-1H-beta-carboline]	C (C = <50% inhibition)	B (B = 50-79% inhibition)	B (B = 50-79% inhibition)	C (C = <50% inhibition)	B (B = 50-79% inhibition)	B (B = 50-79% inhibition)	C (C = <50% inhibition)
Cc1cccc(C2c3[nH]c4ccccc4c3CCN2c2ncnc3[nH]cnc23)c1 (stereo not drawn) [Compound 11, 1-(3-methylphenyl)-2-(9H-purin-6-yl)-2,3,4,9-tetrahydro-1H-beta-carboline]	C (C = <50% inhibition)	A (A = 80-100% inhibition)	A (A = 80-100% inhibition)	B (B = 50-79% inhibition)	A (A = 80-100% inhibition)	B (B = 50-79% inhibition)	C (C = <50% inhibition)
Cc1cccc(C2c3[nH]c4ccccc4c3CCN2c2ncnc3[nH]ncc23)c1 (stereo not drawn) [Compound 12, 1-(3-methylphenyl)-2-(1H-pyrazolo[3,4-d]pyrimidin-4-yl)-2,3,4,9-tetrahydro-1H-beta-carboline]	B (B = 50-79% inhibition)	B (B = 50-79% inhibition)	A (A = 80-100% inhibition)	B (B = 50-79% inhibition)	B (B = 50-79% inhibition)	C (C = <50% inhibition)	C (C = <50% inhibition)
Clc1ccccc1C1c2[nH]c3ccccc3c2CCN1c1ncnc2[nH]cnc12 (stereo not drawn) [Compound 13, 1-(2-chlorophenyl)-2-(9H-purin-6-yl)-2,3,4,9-tetrahydro-1H-beta-carboline]	B (B = 50-79% inhibition)	C (C = <50% inhibition)	C (C = <50% inhibition)	C (C = <50% inhibition)	B (B = 50-79% inhibition)	C (C = <50% inhibition)	C (C = <50% inhibition)
c1ccc(CC2c3[nH]c4ccccc4c3CCN2c2ncnc3[nH]ccc23)cc1 (stereo not drawn) [Compound 14, 1-benzyl-2-(7H-pyrrolo[2,3-d]pyrimidin-4-yl)-2,3,4,9-tetrahydro-1H-beta-carboline]	C (C = <50% inhibition)	B (B = 50-79% inhibition)	A (A = 80-100% inhibition)	A (A = 80-100% inhibition)	A (A = 80-100% inhibition)	B (B = 50-79% inhibition)	A (A = 80-100% inhibition)
c1ccc(CC2c3[nH]c4ccccc4c3CCN2c2ncnc3[nH]cnc23)cc1 (stereo not drawn) [Compound 15, 1-benzyl-2-(9H-purin-6-yl)-2,3,4,9-tetrahydro-1H-beta-carboline]	C (C = <50% inhibition)	B (B = 50-79% inhibition)	B (B = 50-79% inhibition)	A (A = 80-100% inhibition)	A (A = 80-100% inhibition)	C (C = <50% inhibition)	A (A = 80-100% inhibition)
Nc1nc(N2CCc3c([nH]c4ccccc34)C2Cc2ccccc2)c2nc[nH]c2n1 (stereo not drawn) [Compound 16, 6-(1-benzyl-1,3,4,9-tetrahydro-2H-beta-carbolin-2-yl)-9H-purin-2-amine]	C (C = <50% inhibition)	C (C = <50% inhibition)	C (C = <50% inhibition)	C (C = <50% inhibition)	C (C = <50% inhibition)	C (C = <50% inhibition)	C (C = <50% inhibition)
c1ccc(CC2c3[nH]c4ccccc4c3CCN2c2ncnc3[nH]ncc23)cc1 (stereo not drawn) [Compound 17, 1-benzyl-2-(1H-pyrazolo[3,4-d]pyrimidin-4-yl)-2,3,4,9-tetrahydro-1H-beta-carboline]	C (C = <50% inhibition)	B (B = 50-79% inhibition)	B (B = 50-79% inhibition)	C (C = <50% inhibition)	B (B = 50-79% inhibition)	B (B = 50-79% inhibition)	C (C = <50% inhibition)
CC(C)c1ccc(C2c3[nH]c4ccccc4c3CCN2c2ncnc3[nH]ccc23)cc1 (stereo not drawn) [Compound 18, 1-(4-isopropylphenyl)-2-(7H-pyrrolo[2,3-d]pyrimidin-4-yl)-2,3,4,9-tetrahydro-1H-beta-carboline]	C (C = <50% inhibition)	A (A = 80-100% inhibition)	A (A = 80-100% inhibition)	A (A = 80-100% inhibition)	A (A = 80-100% inhibition)	A (A = 80-100% inhibition)	C (C = <50% inhibition)
